# Data reported in patent publication US12649750B2, “Macrocyclic compounds, compositions, and methods of using thereof” (Sionna Therapeutics Inc., priority 2022, dated 2026).
# Tests used:
# NBD1 = molecular target: T1, NBD1 (Homo sapiens, UniProt P13569); test: Aggregation analysis using differential static light scattering (DSLS), thermal stability of NBD1 (ΔTagg); assay type: binding; details: ΔTagg versus DMSO control, NBD1 0.2 mg/ml
# T1 construct: Purified recombinant NBD1 was produced using previously described methods; made in house
# T1 sequence (P13569 423-646 limits assumed): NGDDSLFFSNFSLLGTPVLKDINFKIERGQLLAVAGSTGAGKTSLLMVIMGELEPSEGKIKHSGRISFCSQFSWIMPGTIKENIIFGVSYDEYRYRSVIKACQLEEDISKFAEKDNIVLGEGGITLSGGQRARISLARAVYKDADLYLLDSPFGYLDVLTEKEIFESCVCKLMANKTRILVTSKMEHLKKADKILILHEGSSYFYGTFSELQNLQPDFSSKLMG
# Outline: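 Stabilisation is measured as the shift in aggregation onset of recombinant NBD1 (0.2 mg/ml, 2 mM ATP, 5 mM MgCl2, pH7.6) exposed to compound. Images are taken every 0.5° C. while heating at 1° C. per minute, and the inflection-point Tagg is corrected by the DMSO mean.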
# CFTR = molecular target: T2, CFTR (Homo sapiens, UniProt P13569, DEL508-508); test: TECC24 AUC fold over DMSO @10 μM, CFTR-mediated transepithelial chloride transport in CF-HBE cells; assay type: cell-based; details: test agent AUC divided by DMSO vehicle AUC, primary CF-HBE cells, ΔF508 homozygous donor, 48 hours incubation
# T2 construct: Primary human bronchial epithelial cells from a ΔF508 homozygous CF donor; host or cells: primary human bronchial epithelial cells (CF-HBE), ΔF508 homozygous donor
# T2 sequence (P13569 with tags, fused parts or gaps DEL508-508): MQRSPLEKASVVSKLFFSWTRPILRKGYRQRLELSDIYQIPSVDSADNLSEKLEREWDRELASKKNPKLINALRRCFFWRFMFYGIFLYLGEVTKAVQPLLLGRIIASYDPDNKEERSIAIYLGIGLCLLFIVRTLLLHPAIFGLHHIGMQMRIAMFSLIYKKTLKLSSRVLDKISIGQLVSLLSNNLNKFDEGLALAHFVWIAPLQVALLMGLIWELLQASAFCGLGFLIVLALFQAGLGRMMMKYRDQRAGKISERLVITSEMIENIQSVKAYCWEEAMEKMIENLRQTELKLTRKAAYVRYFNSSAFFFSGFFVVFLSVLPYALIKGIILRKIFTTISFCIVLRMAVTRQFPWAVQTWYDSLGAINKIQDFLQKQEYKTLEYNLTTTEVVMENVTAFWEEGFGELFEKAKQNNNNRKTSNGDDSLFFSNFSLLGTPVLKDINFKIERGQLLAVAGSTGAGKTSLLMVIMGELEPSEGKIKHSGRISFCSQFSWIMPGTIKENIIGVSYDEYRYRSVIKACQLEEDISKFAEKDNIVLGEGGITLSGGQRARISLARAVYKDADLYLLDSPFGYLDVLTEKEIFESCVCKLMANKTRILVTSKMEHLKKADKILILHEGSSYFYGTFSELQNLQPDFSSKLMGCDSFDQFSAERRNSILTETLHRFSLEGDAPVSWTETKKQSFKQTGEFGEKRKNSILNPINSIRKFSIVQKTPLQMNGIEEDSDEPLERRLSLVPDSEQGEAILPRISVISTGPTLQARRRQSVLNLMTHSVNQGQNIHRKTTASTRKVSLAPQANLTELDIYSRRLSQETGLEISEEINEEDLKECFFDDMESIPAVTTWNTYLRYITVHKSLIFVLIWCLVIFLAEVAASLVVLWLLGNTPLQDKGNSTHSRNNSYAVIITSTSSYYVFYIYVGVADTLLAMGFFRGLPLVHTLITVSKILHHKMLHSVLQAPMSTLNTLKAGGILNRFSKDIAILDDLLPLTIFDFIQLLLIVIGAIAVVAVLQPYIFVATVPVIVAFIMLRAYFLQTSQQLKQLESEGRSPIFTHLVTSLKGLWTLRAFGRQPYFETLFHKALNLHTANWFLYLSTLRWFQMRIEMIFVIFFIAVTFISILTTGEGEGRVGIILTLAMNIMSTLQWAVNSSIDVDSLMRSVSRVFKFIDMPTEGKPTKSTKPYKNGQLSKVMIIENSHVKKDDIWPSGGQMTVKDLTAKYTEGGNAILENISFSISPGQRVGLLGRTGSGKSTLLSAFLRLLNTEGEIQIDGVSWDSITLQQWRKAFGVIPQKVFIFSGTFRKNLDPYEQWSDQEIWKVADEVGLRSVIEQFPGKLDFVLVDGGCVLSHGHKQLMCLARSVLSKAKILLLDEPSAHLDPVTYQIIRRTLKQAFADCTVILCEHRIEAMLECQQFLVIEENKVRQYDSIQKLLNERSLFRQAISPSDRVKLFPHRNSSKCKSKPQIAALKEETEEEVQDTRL
# Outline: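 Primary ΔF508-homozygous CF bronchial epithelial cells on inserts were incubated 48 h at 36.5 °C with compound in IL-13-containing medium. VT and TEER were then recorded in current-clamp mode (pH 7.4 HEPES bath) with benzamil 10 μM, forskolin 10 μM, then CFTR inhibitor-172 20 μM. The IEQ AUC between forskolin and inhibitor was divided by vehicle AUC.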
smiles,measurement,setting,value
"C[C@@H](Cc1cccc([C@@]2(C)CCCC(C)(C)CS(=O)(=O)CCc3c(c(F)cc4[nH]ccc34)[S+]([O-])c3ccnc(c3)-c3nc2nn3C)c1)C(=O)O (single isomer, unassigned) [Compound 222A]",DSLS 3D (100 μM ΔT),NBD1,B (a value above 5 °C and less than or equal to 10 °C is marked “B”)
same,"TECC (AUC, 10 μM)",CFTR,C (a value between 20 and 80 is marked “C”)
"C[C@@H](Cc1cccc([C@@]2(C)CCCC(C)(C)CS(=O)(=O)CCc3c(c(F)cc4[nH]ccc34)[S+]([O-])c3ccnc(c3)-c3nc2nn3C)c1)C(=O)O (single isomer, unassigned) [Compound 222B]",DSLS 3D (100 μM ΔT),NBD1,C (a value greater than 10 °C and less than or equal to 25 °C is marked “C”)
same,"TECC (AUC, 10 μM)",CFTR,C (a value between 20 and 80 is marked “C”)
"Cn1nc2nc1-c1cc(ccc1F)[S+]([O-])c1c(F)cc3[nH]ccc3c1CCS(=O)(=O)CC(C)(C)CCC[C@]2(C)c1ccccc1 (single isomer, unassigned) [Compound 223A]",DSLS 3D (100 μM ΔT),NBD1,A (an ΔTagg value less than or equal to 5 °C is marked “A”)
same,"TECC (AUC, 10 μM)",CFTR,A (a TECC value less than 12 is marked “A”)
"Cn1nc2nc1-c1cc(ccc1F)[S+]([O-])c1c(F)cc3[nH]ccc3c1CCS(=O)(=O)CC(C)(C)CCC[C@]2(C)c1ccccc1 (single isomer, unassigned) [Compound 223B]",DSLS 3D (100 μM ΔT),NBD1,C (a value greater than 10 °C and less than or equal to 25 °C is marked “C”)
same,"TECC (AUC, 10 μM)",CFTR,C (a value between 20 and 80 is marked “C”)
"Cn1nc2nc1-c1cc(ccn1)[S+]([O-])c1c(F)cc3[nH]ccc3c1CCS(=O)(=O)CC(C)(C)CCC[C@]2(C)c1cccc(CCC(=O)O)c1 (single isomer, unassigned) [Compound 224]",DSLS 3D (100 μM ΔT),NBD1,C (a value greater than 10 °C and less than or equal to 25 °C is marked “C”)
same,"TECC (AUC, 10 μM)",CFTR,C (a value between 20 and 80 is marked “C”)
"C[C@@H](Cc1cccc([C@@]2(C)CCCC(C)(C)CS(=O)(=O)CCc3c(c(F)c(F)c4[nH]ccc34)[S+]([O-])c3ccc(F)c(c3)-c3nc2nn3C)c1)C(=O)O (single isomer, unassigned) [Compound 225A]",DSLS 3D (100 μM ΔT),NBD1,B (a value above 5 °C and less than or equal to 10 °C is marked “B”)
same,"TECC (AUC, 10 μM)",CFTR,C (a value between 20 and 80 is marked “C”)
"C[C@@H](Cc1cccc([C@@]2(C)CCCC(C)(C)CS(=O)(=O)CCc3c(c(F)c(F)c4[nH]ccc34)[S+]([O-])c3ccc(F)c(c3)-c3nc2nn3C)c1)C(=O)O (single isomer, unassigned) [Compound 225B]",DSLS 3D (100 μM ΔT),NBD1,C (a value greater than 10 °C and less than or equal to 25 °C is marked “C”)
same,"TECC (AUC, 10 μM)",CFTR,C (a value between 20 and 80 is marked “C”)
"Cn1nc2nc1-c1cc(ccc1F)[S+]([O-])c1c(F)cc3[nH]ccc3c1CCS(=O)(=O)CC(C)(C)CCC[C@]2(C)c1cccc(C[C@@H](O)CO)c1 (single isomer, unassigned) [Compound 235A]",DSLS 3D (100 μM ΔT),NBD1,B (a value above 5 °C and less than or equal to 10 °C is marked “B”)
same,"TECC (AUC, 10 μM)",CFTR,B (a value between 12-20 is marked “B”)
"Cn1nc2nc1-c1cc(ccc1F)[S+]([O-])c1c(F)cc3[nH]ccc3c1CCS(=O)(=O)CC(C)(C)CCC[C@]2(C)c1cccc(C[C@@H](O)CO)c1 (single isomer, unassigned) [Compound 235B]",DSLS 3D (100 μM ΔT),NBD1,C (a value greater than 10 °C and less than or equal to 25 °C is marked “C”)
same,"TECC (AUC, 10 μM)",CFTR,C (a value between 20 and 80 is marked “C”)
"Cn1nc2nc1-c1cc(ccc1F)[S+]([O-])c1c(F)cc3[nH]ccc3c1CCS(=O)(=O)CC(C)(C)CCC[C@]2(C)c1cccc([C@@H](O)CO)c1 (single isomer, unassigned) [Compound 236A]",DSLS 3D (100 μM ΔT),NBD1,B (a value above 5 °C and less than or equal to 10 °C is marked “B”)
same,"TECC (AUC, 10 μM)",CFTR,A (a TECC value less than 12 is marked “A”)
"Cn1nc2nc1-c1cc(ccc1F)[S+]([O-])c1c(F)cc3[nH]ccc3c1CCS(=O)(=O)CC(C)(C)CCC[C@]2(C)c1cccc([C@@H](O)CO)c1 (single isomer, unassigned) [Compound 236B]",DSLS 3D (100 μM ΔT),NBD1,C (a value greater than 10 °C and less than or equal to 25 °C is marked “C”)
same,"TECC (AUC, 10 μM)",CFTR,C (a value between 20 and 80 is marked “C”)
"C[C@H](O)Cc1cccc([C@@]2(C)CCCC(C)(C)CS(=O)(=O)CCc3c(c(F)cc4[nH]ccc34)[S+]([O-])c3ccc(F)c(c3)-c3nc2nn3C)c1 (single isomer, unassigned) [Compound 237A]",DSLS 3D (100 μM ΔT),NBD1,A (an ΔTagg value less than or equal to 5 °C is marked “A”)
same,"TECC (AUC, 10 μM)",CFTR,C (a value between 20 and 80 is marked “C”)
"C[C@H](O)Cc1cccc([C@@]2(C)CCCC(C)(C)CS(=O)(=O)CCc3c(c(F)cc4[nH]ccc34)[S+]([O-])c3ccc(F)c(c3)-c3nc2nn3C)c1 (single isomer, unassigned) [Compound 237B]",DSLS 3D (100 μM ΔT),NBD1,C (a value greater than 10 °C and less than or equal to 25 °C is marked “C”)
same,"TECC (AUC, 10 μM)",CFTR,C (a value between 20 and 80 is marked “C”)
"C[C@@H](Cc1cccc([C@@]2(C)CCCC(C)(C)CS(=O)(=O)CCc3c(c(F)cc4[nH]ccc34)[S+]([O-])c3ccnc(c3)-c3nc2cs3)c1)C(=O)O (single isomer, unassigned) [Compound 239A]",DSLS 3D (100 μM ΔT),NBD1,A (an ΔTagg value less than or equal to 5 °C is marked “A”)
same,"TECC (AUC, 10 μM)",CFTR,B (a value between 12-20 is marked “B”)
"C[C@@H](Cc1cccc([C@@]2(C)CCCC(C)(C)CS(=O)(=O)CCc3c(c(F)cc4[nH]ccc34)[S+]([O-])c3ccnc(c3)-c3nc2cs3)c1)C(=O)O (single isomer, unassigned) [Compound 239B]",DSLS 3D (100 μM ΔT),NBD1,A (an ΔTagg value less than or equal to 5 °C is marked “A”)
same,"TECC (AUC, 10 μM)",CFTR,A (a TECC value less than 12 is marked “A”)
"C[C@@H](Cc1cccc([C@@]2(C)CCCC(C)(C)CS(=O)(=O)CCc3c(c(F)cc4[nH]ccc34)[S+]([O-])c3ccc(F)c(c3)-c3nc2cs3)c1)C(=O)O (single isomer, unassigned) [Compound 241A]",DSLS 3D (100 μM ΔT),NBD1,A (an ΔTagg value less than or equal to 5 °C is marked “A”)
same,"TECC (AUC, 10 μM)",CFTR,C (a value between 20 and 80 is marked “C”)
"C[C@@H](Cc1cccc([C@@]2(C)CCCC(C)(C)CS(=O)(=O)CCc3c(c(F)cc4[nH]ccc34)[S+]([O-])c3ccc(F)c(c3)-c3nc2cs3)c1)C(=O)O (single isomer, unassigned) [Compound 241B]",DSLS 3D (100 μM ΔT),NBD1,A (an ΔTagg value less than or equal to 5 °C is marked “A”)
same,"TECC (AUC, 10 μM)",CFTR,A (a TECC value less than 12 is marked “A”)
"Cn1nc2nc1-c1cc(ccn1)[S+]([O-])c1c(F)cc3[nH]ccc3c1CCS(=O)(=O)CC(C)(C)CCC[C@]2(C)c1cccc(CCS(C)(=O)=O)c1 (single isomer, unassigned) [Compound 243A]",DSLS 3D (100 μM ΔT),NBD1,B (a value above 5 °C and less than or equal to 10 °C is marked “B”)
same,"TECC (AUC, 10 μM)",CFTR,C (a value between 20 and 80 is marked “C”)
"Cn1nc2nc1-c1cc(ccn1)[S+]([O-])c1c(F)cc3[nH]ccc3c1CCS(=O)(=O)CC(C)(C)CCC[C@]2(C)c1cccc(CCS(C)(=O)=O)c1 (single isomer, unassigned) [Compound 243B]",DSLS 3D (100 μM ΔT),NBD1,C (a value greater than 10 °C and less than or equal to 25 °C is marked “C”)
same,"TECC (AUC, 10 μM)",CFTR,C (a value between 20 and 80 is marked “C”)
"C[C@H](Cc1ccc(C2(C)CCCC(C)(C)CS(=O)(=O)CCc3c(c(F)cc4[nH]ccc34)Oc3ccnc(c3)-c3nc2nn3C)s1)C(=O)O (single isomer, unassigned) [Compound 246A]",DSLS 3D (100 μM ΔT),NBD1,C (a value greater than 10 °C and less than or equal to 25 °C is marked “C”)
same,"TECC (AUC, 10 μM)",CFTR,B (a value between 12-20 is marked “B”)
"C[C@H](Cc1ccc(C2(C)CCCC(C)(C)CS(=O)(=O)CCc3c(c(F)cc4[nH]ccc34)Oc3ccnc(c3)-c3nc2nn3C)s1)C(=O)O (single isomer, unassigned) [Compound 246B]",DSLS 3D (100 μM ΔT),NBD1,A (an ΔTagg value less than or equal to 5 °C is marked “A”)
same,"TECC (AUC, 10 μM)",CFTR,B (a value between 12-20 is marked “B”)
"C[C@@H](Cc1cccc([C@@]2(C)CCCC(C)(C)CS(=O)(=O)CCc3c(c(F)cc4[nH]ccc34)[S+]([O-])c3ccc(F)c(c3)-c3nc2co3)c1)C(=O)O (single isomer, unassigned) [Compound 248A]",DSLS 3D (100 μM ΔT),NBD1,C (a value greater than 10 °C and less than or equal to 25 °C is marked “C”)
same,"TECC (AUC, 10 μM)",CFTR,C (a value between 20 and 80 is marked “C”)
"C[C@@H](Cc1cccc([C@@]2(C)CCCC(C)(C)CS(=O)(=O)CCc3c(c(F)cc4[nH]ccc34)[S+]([O-])c3ccc(F)c(c3)-c3nc2co3)c1)C(=O)O (single isomer, unassigned) [Compound 248B]",DSLS 3D (100 μM ΔT),NBD1,C (a value greater than 10 °C and less than or equal to 25 °C is marked “C”)
same,"TECC (AUC, 10 μM)",CFTR,A (a TECC value less than 12 is marked “A”)
"Cn1nc2nc1-c1cc(ccn1)[S+]([O-])c1c(F)cc3[nH]ccc3c1CCS(=O)(=O)CC(C)(C)CCC[C@]2(C)c1cccc(CC(=O)O)c1 (single isomer, unassigned) [Compound 249A]",DSLS 3D (100 μM ΔT),NBD1,C (a value greater than 10 °C and less than or equal to 25 °C is marked “C”)
same,"TECC (AUC, 10 μM)",CFTR,C (a value between 20 and 80 is marked “C”)
"Cn1nc2nc1-c1cc(ccn1)[S+]([O-])c1c(F)cc3[nH]ccc3c1CCS(=O)(=O)CC(C)(C)CCC[C@]2(C)c1cccc(CC(=O)O)c1 (single isomer, unassigned) [Compound 249B]",DSLS 3D (100 μM ΔT),NBD1,C (a value greater than 10 °C and less than or equal to 25 °C is marked “C”)
same,"TECC (AUC, 10 μM)",CFTR,B (a value between 12-20 is marked “B”)
